≈ marks a conversion by molar mass, not a printed value.
Assays:
[1] = tested on: rabbit platelet aggregation induced by collagen; assay: Rabbit platelet aggregation induced by collagen; assay type: cell-based; details: collagen 4 μg/mL; for IC50: Oryctolagus cuniculus, Platelet, read-out: IC50 against rabbit platelet aggregation induced by collagen
Procedure: (§1) Compounds 1–15 and 1a were also evaluated for their inhibitory activity against rabbit platelet aggregation induced by thrombin (1 U/mL), platelet-activating factor (PAF, 0.4 μg/mL), arachidonate (AA, 0.5 mM), or collagen (4 μg/mL).
(§2) The inhibitory effects of the compounds against rabbit platelet aggregation induced by thrombin (1 U/mL), PAF (0.4 μg/mL), AA (0.5 mM), or collagen (4 μg/mL) were evaluated according to published methods.

[2] = molecular target: T1, porcine pancreatic lipase (PPL) (Sus scrofa, UniProt P00591); assay: In vitro porcine pancreatic lipase inhibition assay (p-NPB substrate); assay type: biochemical
T1 sequence (P00591 1-450): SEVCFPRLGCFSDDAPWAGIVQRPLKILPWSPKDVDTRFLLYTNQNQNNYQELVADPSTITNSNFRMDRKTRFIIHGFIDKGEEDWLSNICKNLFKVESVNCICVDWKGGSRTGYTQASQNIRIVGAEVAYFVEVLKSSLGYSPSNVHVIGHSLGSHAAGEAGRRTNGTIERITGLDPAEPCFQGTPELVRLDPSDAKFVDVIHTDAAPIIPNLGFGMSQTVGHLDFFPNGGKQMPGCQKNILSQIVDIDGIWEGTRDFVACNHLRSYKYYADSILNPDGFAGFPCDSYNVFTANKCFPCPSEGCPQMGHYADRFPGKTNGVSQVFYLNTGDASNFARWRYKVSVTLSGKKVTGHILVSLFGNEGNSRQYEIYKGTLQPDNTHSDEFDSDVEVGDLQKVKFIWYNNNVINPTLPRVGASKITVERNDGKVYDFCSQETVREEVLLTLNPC
Procedure: For lipase inhibition tests of each compound, porcine pancreatic lipase was used. p-Nitrophenyl butyrate (p-NPB) was used as the substrate. First, 5 μL of the lipase solution (40 U/mL) in Tris–HCl buffer (100 mM Tris–HCl, 5 mM CaCl2; pH 7.0) was added to a 96-well microtiter plate. Each compound in 1 μL of DMSO and 184 μL of Tris–HCl buffer were added and mixed with the enzyme buffer to start the reaction. After incubation at 37 °C for 15 min, 10 μL of the substrate solution (10 mM p-NPB in dimethyl formamide) was added. The enzymatic reaction was carried out for 15 min at 37 °C. The hydrolysis of p-NPB to p-nitrophenol was monitored at 400 nm using a spectrophotometer.

[3] = tested on: rabbit platelet aggregation induced by arachidonate (AA); assay: Rabbit platelet aggregation induced by arachidonate (AA); assay type: cell-based; details: Oryctolagus cuniculus, AA 0.5 mM
Procedure: as §1, §2

scrophenoside B [Compound 8]
IC50 against rabbit platelet aggregation induced by collagen [1]: 180.5 ± 6.7 µg/mL

CCC(CCC(C)C1CCC2C3C(OC)C=C4CC(OC5OC(CO)C(O)C(O)C5O)CCC4(C)C3CCC12C)C(C)C (stereo not drawn) [Compound 3, 7β-methoxy-β-sitosterol 3-O-β-glucopyranoside]
IC50 ([2]; porcine pancreatic lipase, p-NPB substrate, read-out: PPL inhibitory activity IC50 (converted)): 111 µM

CC(=O)Oc1ccc(/C=C/C(=O)OC[C@H]2O[C@@H](Oc3cc(C)oc(=O)c3)[C@H](OC(C)=O)[C@@H](OC(C)=O)[C@@H]2OC(C)=O)cc1 [Compound 1a]
IC50 [1]: 63.8 ± 4.4 µg/mL (≈ 106 µM)
IC50 ([3]; read-out: IC50 against rabbit platelet aggregation induced by AA): 72.6 ± 10.5 µg/mL (≈ 120 µM)

CC(=O)Oc1ccccc1C(=O)O [aspirin, reference compound]
IC50 [1]: 33.3 ± 1.3 µg/mL (≈ 185 µM)
inhibition at 40 µg/mL ([3]; at 40 μg/mL): 88.1 ± 1.1%

7-oxo-β-sitosterol 3-O-β-D-glucopyranoside [Compound 4]
PPL inhibition ([2]; at a concentration of 100 μg/mL): 12 ± 2%

Cc1cc(OC2OC(COC(=O)C=Cc3ccc(O)cc3)C(O)C(O)C2O)cc(=O)o1 (centres unmarked) [Compound 1, cuscutaroside A]
IC50 [1]: 291 ± 47.9 µg/mL (≈ 671 µM)
